Results on four compounds are retold here after patent US9447091B2, “Protein kinase inhibitors” (Orion Corporation, priority 2011, dated 2016).

Assay [1] concerns the target c-Met kinase (Homo sapiens (Human), UniProt P08581). Description: c-Met TR-FRET kinase assay. In kind it is biochemical. As to conditions: 1000 nM compound. The procedure: Compounds were screened in the TR-FRET assay with c-Met kinase. 0.1 ng of c-Met [expressed in-house] kinase was used for assay. The compound was incubated with the kinase for 60 min at RT. After the incubation, substrate mix [40 nM Ultra light poly GT (Perkin Elmer, USA) and 10 μM ATP (Sigma)] was added. The above reaction was stopped by the addition of 40 mM EDTA after the 30 min kinase reaction. The Eu-labelled antiphospho-tyrosine antibody [Perkin Elmer, USA] was added at 0.5 nM and the fluorescence emission at 615 nm/665 nm [excitation at 340 nm] was measured. The compounds were initially screened at 100 nM and 1 μM concentrations. The compounds with >50% inhibition at 100 nM of c-Met were taken for the full dose response studies. The final DMSO concentration in the assay was 1%. For IC50 determination, ⅓rd serial dilution was made from the 20 mM DMSO stock solution. 2 μl of these were transferred to the test wells containing 20 μl reaction mixture [total reaction volume 20 μl]. The fluorescence was measured in Perkin Elmer Wallac 1420 Multilabel Counter Victor 3. The IC50 was determined by fitting the dose response data to sigmoidal curve fitting equation using GraphPad Prism software V5.
For orientation: Time-resolved FRET reads energy transfer from a long-lived donor to a nearby acceptor.

Assay [2] has as its target FGFR1 kinase (Homo sapiens (Human), UniProt P11362). Description: FGFR1 TR-FRET kinase assay. Format: biochemical. As to conditions: for inhibition at 1 µM: 1000 nM compound; for IC50: 13 μM ATP, read-out: IC50 of FGFR1 inhibition. The procedure: Compounds were screened in the TR-FRET assay with FGFR1 kinase. 5 ng of FGFR1 [Upstate, USA] kinase was used for assay. The compound was incubated with the kinase for 30 minutes at RT. After the incubation, substrate mix [40 nM Ultra light poly GT (Perkin Elmer, USA) and 13 μM ATP (Sigma)] was added. The above reaction was stopped by the addition of 40 mM EDTA after the […] kinase reaction. The Eu-labelled antiphospho-tyrosine antibody [Perkin Elmer, USA] was added at 0.5 nM and the fluorescence emission at 615 nm/665 nm [excitation at 340 nm] was measured. The compounds were initially screened at 100 nM and 1 μM concentrations. The compounds with >50% inhibition at 100 nM of FGFR1 were taken for the full dose response studies. The final DMSO concentration in the assay was 1%. For IC50 determination, ⅓^rd serial dilution was made from the 20 mM DMSO stock solution. 2 μl of these were transferred to the test wells containing 20 μl of the reaction mixture [total reaction volume 20 μl]. The fluorescence was measured in Perkin Elmer Wallac 1420 Multilabel Counter Victor 3. The IC50 was determined by fitting the dose response data to sigmoidal curve fitting equation using GraphPad Prism software V5.

Sequence of c-Met kinase (P08581 25-1390): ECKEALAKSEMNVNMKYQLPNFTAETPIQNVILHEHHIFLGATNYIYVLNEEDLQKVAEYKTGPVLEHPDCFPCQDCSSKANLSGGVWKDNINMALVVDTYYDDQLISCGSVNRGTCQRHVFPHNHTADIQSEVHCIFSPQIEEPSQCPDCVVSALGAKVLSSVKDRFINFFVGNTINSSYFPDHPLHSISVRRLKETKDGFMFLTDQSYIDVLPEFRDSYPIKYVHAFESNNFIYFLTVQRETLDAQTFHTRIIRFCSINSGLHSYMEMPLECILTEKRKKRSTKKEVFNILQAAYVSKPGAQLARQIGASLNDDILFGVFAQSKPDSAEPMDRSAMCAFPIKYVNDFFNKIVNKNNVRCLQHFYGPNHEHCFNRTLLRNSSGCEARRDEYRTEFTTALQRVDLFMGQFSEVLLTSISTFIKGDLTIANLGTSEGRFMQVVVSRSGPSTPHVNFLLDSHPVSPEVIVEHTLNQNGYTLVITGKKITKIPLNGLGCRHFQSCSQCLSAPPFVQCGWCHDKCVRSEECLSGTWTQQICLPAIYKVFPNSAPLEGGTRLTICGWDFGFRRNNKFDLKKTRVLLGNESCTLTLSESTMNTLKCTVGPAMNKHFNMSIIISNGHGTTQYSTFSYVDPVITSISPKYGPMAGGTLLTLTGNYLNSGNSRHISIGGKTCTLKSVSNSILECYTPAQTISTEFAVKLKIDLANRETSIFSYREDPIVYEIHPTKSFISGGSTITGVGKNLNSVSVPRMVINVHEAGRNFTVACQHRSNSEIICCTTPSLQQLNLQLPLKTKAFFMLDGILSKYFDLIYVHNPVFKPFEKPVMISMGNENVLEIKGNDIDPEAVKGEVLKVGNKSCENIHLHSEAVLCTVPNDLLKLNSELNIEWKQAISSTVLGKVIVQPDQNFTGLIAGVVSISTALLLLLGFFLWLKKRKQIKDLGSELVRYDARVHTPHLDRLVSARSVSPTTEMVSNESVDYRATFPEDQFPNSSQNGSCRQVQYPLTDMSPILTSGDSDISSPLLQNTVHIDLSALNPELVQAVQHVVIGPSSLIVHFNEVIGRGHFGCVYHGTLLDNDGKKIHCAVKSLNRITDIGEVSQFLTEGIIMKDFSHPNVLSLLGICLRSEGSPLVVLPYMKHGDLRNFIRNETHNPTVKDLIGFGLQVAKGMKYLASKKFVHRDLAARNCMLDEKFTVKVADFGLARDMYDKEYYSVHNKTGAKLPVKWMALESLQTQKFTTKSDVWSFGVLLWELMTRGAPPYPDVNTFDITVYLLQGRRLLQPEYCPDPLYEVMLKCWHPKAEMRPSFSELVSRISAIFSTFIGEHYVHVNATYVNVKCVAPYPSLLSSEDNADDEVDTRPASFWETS
Sequence of FGFR1 kinase (P11362 22-822): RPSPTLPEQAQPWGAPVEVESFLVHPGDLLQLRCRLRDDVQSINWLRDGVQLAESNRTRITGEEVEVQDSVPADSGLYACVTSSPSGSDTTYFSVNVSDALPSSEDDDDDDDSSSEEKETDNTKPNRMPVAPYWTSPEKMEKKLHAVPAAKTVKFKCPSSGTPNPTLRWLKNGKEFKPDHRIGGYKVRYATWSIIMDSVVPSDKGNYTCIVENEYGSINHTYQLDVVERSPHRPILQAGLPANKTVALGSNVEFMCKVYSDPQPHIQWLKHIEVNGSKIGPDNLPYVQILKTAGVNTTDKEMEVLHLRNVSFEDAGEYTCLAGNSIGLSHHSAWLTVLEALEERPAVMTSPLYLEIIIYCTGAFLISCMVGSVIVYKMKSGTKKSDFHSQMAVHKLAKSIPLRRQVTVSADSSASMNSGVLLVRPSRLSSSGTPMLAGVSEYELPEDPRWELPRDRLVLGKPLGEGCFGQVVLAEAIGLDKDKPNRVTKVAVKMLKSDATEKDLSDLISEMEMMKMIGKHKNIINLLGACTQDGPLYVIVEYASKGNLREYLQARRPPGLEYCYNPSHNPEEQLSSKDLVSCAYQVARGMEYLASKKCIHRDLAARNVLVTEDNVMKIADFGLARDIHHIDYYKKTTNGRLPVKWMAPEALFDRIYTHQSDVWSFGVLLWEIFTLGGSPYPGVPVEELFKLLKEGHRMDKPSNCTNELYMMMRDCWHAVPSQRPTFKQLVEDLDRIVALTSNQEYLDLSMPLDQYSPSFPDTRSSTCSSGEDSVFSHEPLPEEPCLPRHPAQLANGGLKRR

A word on the inhibition: it is the drop in the measured response relative to a control, in per cent. A word on the IC50: it is the midpoint of a concentration-inhibition curve. Take `CC(C)S(=O)(=O)Nc1cc(-c2cc(F)ccc2F)cc(-n2cnc3cc(-c4cnn(CCN5CCOCC5)c4)ccc32)c1` [Example 142, N-(2′,5′-difluoro-5-(5-(1-(2-morpholinoethyl)-1H-pyrazol-4-yl)-1H-benzo[d]-imidazol-1-yl)biphenyl-3-yl)propane-2-sulfonamide]: the inhibition at 1 µM in assay [1] worked out at 0%. Moreover, in assay [2], the inhibition at 1 µM came out at 91% and the 50% inhibitory concentration (IC50) amounted to 48 nM.

In turn, `CC(=O)Nc1cc(-c2c(F)cccc2F)cc(-n2cnc3cc(-n4cccn4)ccc32)c1` [Example 152, N-(5-(5-(1H-pyrazol-1-yl)-1H-benzo[d]imidazol-1-yl)-2′,6′-difluorobiphenyl-3-yl)acetamide] came in with an inhibition at 1 µM in assay [1] of 0%. In assay [2], 1 µM produced 79% inhibition and the IC50 was found to be 7.3 nM.

Consider `CC(=O)Nc1cc(-n2cncn2)cc(-n2cnc3cc(-c4cnn(C)c4)ccc32)c1` [Example 155, N-(3-(5-(1-methyl-1H-pyrazol-4-yl)-1H-benzo[d]imidazol-1-yl)-5-(1H-1,2,4-triazol-1-yl)phenyl)acetamide], for which the inhibition at 1 µM was 1% in assay [1] and 89% in assay [2]. For the same compound, in assay [2], the concentration for half-maximal inhibition (IC50) came to 62 nM.

As for `COc1ccc(-c2cc(NC(C)=O)cc(-n3cnc4cc(-c5cnn(C)c5)ccc43)c2)cn1` [Example 158, N-(3-(6-methoxypyridin-3-yl)-5-(5-(1-methyl-1H-pyrazol-4-yl)-1H-benzo[d]-imidazol-1-yl)phenyl)acetamide], the inhibition at 1 µM in assay [1] stood at 12%; in assay [2], 95%. Moreover, the IC50 in assay [2] worked out at 22 nM.
